Measurements: PubChem BioAssay (NCI)
Values joined by “and” are separate entries in the source; they are usually repeats but may differ in a detail not shown here. Equal values may be shown once.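 Exposure lasted 48 hours, with cells grown in 96-well plates and compounds tested at five concentrations. Here, GI50 denotes the concentration required for 50% inhibition of growth. Definition used: TGI = concentration required for complete inhibition of growth.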

What was measured:
Experiment in all cases: NCI tumour cell line growth inhibition, 48 h
[1] = tested on: SNB-75 CNS
[2] = tested on: M19-MEL melanoma
[3] = tested on: UO-31 renal
[4] = tested on: OVCAR-4 ovarian
[5] = tested on: SF-539 CNS
[6] = tested on: KM12 colon
[7] = tested on: SF-295 CNS
[8] = tested on: HL-60(TB) leukemia
[9] = tested on: LOX IMVI melanoma
[10] = tested on: EKVX NSCLC
[11] = tested on: DMS 114 small cell lung
[12] = tested on: LXFL 529 NSCLC
[13] = tested on: K-562 leukemia
[14] = tested on: A498 renal
[15] = tested on: SF-268 CNS
[16] = tested on: OVCAR-8 ovarian
[17] = tested on: NCI-H23 lung
[18] = tested on: U251 CNS
[19] = tested on: IGROV1 ovarian
[20] = tested on: HCC-2998 colon
[21] = tested on: SK-MEL-5 melanoma
[22] = tested on: SR leukemia
[23] = tested on: HOP-62 NSCLC
[24] = tested on: SN12C renal
[25] = tested on: OVCAR-3 ovarian
[26] = tested on: HT29 colon
[27] = tested on: CAKI-1 renal
[28] = tested on: DMS 273 small cell lung
[29] = tested on: NCI-H522 lung
[30] = tested on: CCRF-CEM leukemia
[31] = tested on: RXF 393 renal
[32] = tested on: UACC-62 melanoma
[33] = tested on: COLO 205 colon
[34] = tested on: XF 498 CNS
[35] = tested on: SNB-19 CNS
[36] = tested on: HCT-116 colon
[37] = tested on: HCT-15 colon
[38] = tested on: MALME-3M melanoma
[39] = tested on: 786-0 renal
[40] = tested on: KM20L2 colon
[41] = tested on: HOP-92 NSCLC
[42] = tested on: HOP-18 NSCLC
[43] = tested on: SK-OV-3 ovarian
[44] = tested on: UACC-257 melanoma
[45] = tested on: SNB-78 CNS
[46] = tested on: NCI-H226 lung
[47] = tested on: ACHN renal
[48] = tested on: NCI-H460 lung
[49] = tested on: SK-MEL-2 melanoma
[50] = tested on: OVCAR-5 ovarian
[51] = tested on: SW-620 colon
[52] = tested on: MOLT-4 leukemia
[53] = tested on: TK-10 renal
[54] = tested on: A549 NSCLC
[55] = tested on: M14 melanoma
[56] = tested on: RPMI-8226 leukemia
[57] = tested on: DLD-1 colon
[58] = tested on: RXF-631 renal
[59] = tested on: SN12K1 renal
[60] = tested on: HS 578T breast
[61] = tested on: MDA-N
[62] = tested on: P388/ADR leukemia
[63] = tested on: P388 leukemia
[64] = tested on: MDA-MB-231 breast
[65] = tested on: MDA-MB-435
[66] = tested on: T-47D breast
[67] = tested on: BT-549 breast
[68] = tested on: SK-MEL-28 melanoma
[69] = tested on: MCF7 breast

**Q.** Which TGI [1] does the source give for `CCOCc1cc(=O)c2cc3c(cc2o1)OC(C)(C)CC3` here?
**A.** > 100 µM

**Q.** And the TGI [2]?
**A.** > 100 µM

**Q.** And the TGI [3]?
**A.** > 100 µM

**Q.** And the TGI [4]?
**A.** > 100 µM

**Q.** What about the TGI [5] of the same molecule?
**A.** > 100 µM

**Q.** What about the TGI [6] of the same molecule?
**A.** > 100 µM

**Q.** And the TGI [7]?
**A.** > 100 µM

**Q.** And the TGI [8]?
**A.** > 100 µM

**Q.** And the TGI [9]?
**A.** > 100 µM

**Q.** What about the TGI [10] of the same molecule?
**A.** > 100 µM

**Q.** And the TGI [11]?
**A.** > 100 µM

**Q.** And the TGI [12]?
**A.** > 100 µM

**Q.** What about the TGI [13] of the same molecule?
**A.** > 100 µM

**Q.** And the TGI [14]?
**A.** > 100 µM

**Q.** And the TGI [15]?
**A.** > 100 µM

**Q.** What about the TGI [16] of the same molecule?
**A.** > 100 µM

**Q.** And the TGI [17]?
**A.** > 100 µM

**Q.** What about the TGI [18] of the same molecule?
**A.** > 100 µM

**Q.** What about the TGI [19] of the same molecule?
**A.** > 100 µM

**Q.** And the TGI [20]?
**A.** > 100 µM

**Q.** And the TGI [21]?
**A.** > 100 µM

**Q.** What about the TGI [22] of the same molecule?
**A.** > 100 µM

**Q.** And the TGI [23]?
**A.** > 100 µM

**Q.** And the TGI [24]?
**A.** > 100 µM

**Q.** What about the TGI [25] of the same molecule?
**A.** > 100 µM

**Q.** What about the TGI [26] of the same molecule?
**A.** > 100 µM

**Q.** And the TGI [27]?
**A.** > 100 µM

**Q.** And the TGI [28]?
**A.** > 100 µM

**Q.** And the TGI [29]?
**A.** > 100 µM

**Q.** And the TGI [30]?
**A.** > 100 µM

**Q.** And the TGI [31]?
**A.** > 100 µM

**Q.** And the TGI [32]?
**A.** > 100 µM

**Q.** What about the TGI [33] of the same molecule?
**A.** > 100 µM

**Q.** What about the TGI [34] of the same molecule?
**A.** > 100 µM

**Q.** And the TGI [35]?
**A.** > 100 µM

**Q.** What about the TGI [36] of the same molecule?
**A.** > 100 µM

**Q.** And the TGI [37]?
**A.** > 100 µM

**Q.** And the TGI [38]?
**A.** > 100 µM

**Q.** And the TGI [39]?
**A.** > 100 µM

**Q.** And the TGI [40]?
**A.** > 100 µM

**Q.** And the TGI [41]?
**A.** > 100 µM

**Q.** What about the TGI [42] of the same molecule?
**A.** > 100 µM

**Q.** And the TGI [43]?
**A.** > 100 µM

**Q.** What about the TGI [44] of the same molecule?
**A.** > 100 µM

**Q.** And the TGI [45]?
**A.** > 100 µM

**Q.** And the TGI [46]?
**A.** > 100 µM

**Q.** And the TGI [47]?
**A.** > 100 µM

**Q.** What about the TGI [48] of the same molecule?
**A.** > 100 µM

**Q.** What about the TGI [49] of the same molecule?
**A.** > 100 µM

**Q.** And the TGI [50]?
**A.** > 100 µM

**Q.** And the TGI [51]?
**A.** > 100 µM

**Q.** What about the TGI [52] of the same molecule?
**A.** > 100 µM

**Q.** And the TGI [53]?
**A.** > 100 µM

**Q.** What about the TGI [54] of the same molecule?
**A.** > 100 µM

**Q.** And the TGI [55]?
**A.** > 100 µM

**Q.** What about the TGI [56] of the same molecule?
**A.** > 100 µM

**Q.** What about the TGI [57] of the same molecule?
**A.** > 100 µM

**Q.** And the TGI [58]?
**A.** > 100 µM

**Q.** Which TGI [59] does the source give for `CN1N=C(N)c2cn(C3OC(COP(=O)(O)O)C(O)C3O)c3ncnc1c23` (stereo not given) here?
**A.** > 5000 µM

**Q.** What about the TGI [2] of the same molecule?
**A.** > 4220 µM

**Q.** And the TGI [5]?
**A.** 162 µM and 807 µM and 208 µM

**Q.** And the TGI [60]?
**A.** 232 µM and 341 µM and 144 µM

**Q.** And the TGI [6]?
**A.** 500 µM and > 1650 µM and > 5000 µM

**Q.** And the TGI [8]?
**A.** 114 µM and 123 µM and 116 µM

**Q.** And the TGI [10]?
**A.** 500 µM and 1650 µM and 360 µM

**Q.** And the TGI [11]?
**A.** > 4300 µM

**Q.** What about the GI50 [61] of the same molecule?
**A.** 25.2 µM

**Q.** And the TGI [61]?
**A.** 390 µM and > 1530 µM

**Q.** And the TGI [13]?
**A.** 500 µM and > 1650 µM and > 5000 µM

**Q.** What about the GI50 [14] of the same molecule?
**A.** 68.5 µM and 40.6 µM

**Q.** And the TGI [14]?
**A.** 391 µM and 1650 µM and 713 µM

**Q.** What about the TGI [62] of the same molecule?
**A.** 2.94 µM

**Q.** And the TGI [15]?
**A.** 500 µM and 1650 µM and > 4850 µM

**Q.** What about the TGI [17] of the same molecule?
**A.** 500 µM and 1650 µM and 4180 µM

**Q.** What about the TGI [18] of the same molecule?
**A.** 500 µM and 1650 µM and > 5000 µM

**Q.** What about the TGI [19] of the same molecule?
**A.** 500 µM and 1650 µM and 918 µM

**Q.** What about the TGI [20] of the same molecule?
**A.** 500 µM and 1650 µM and > 4830 µM

**Q.** What about the TGI [21] of the same molecule?
**A.** 500 µM and > 1650 µM and > 4390 µM

**Q.** And the TGI [22]?
**A.** 500 µM and > 1650 µM and > 5000 µM

**Q.** And the TGI [63]?
**A.** 7.87 µM

**Q.** And the TGI [64]?
**A.** 163 µM and 259 µM

**Q.** And the TGI [26]?
**A.** 500 µM and 1650 µM and > 4630 µM

**Q.** What about the TGI [28] of the same molecule?
**A.** > 5000 µM

**Q.** What about the TGI [65] of the same molecule?
**A.** 363 µM and 671 µM

**Q.** What about the TGI [29] of the same molecule?
**A.** 500 µM and > 1650 µM and > 5000 µM

**Q.** What about the TGI [30] of the same molecule?
**A.** 500 µM and 1650 µM and > 5000 µM

**Q.** What about the GI50 [31] of the same molecule?
**A.** 41.9 µM

**Q.** And the TGI [31]?
**A.** 236 µM and 462 µM and 460 µM

**Q.** What about the GI50 [32] of the same molecule?
**A.** 22.6 µM and 96.1 µM

**Q.** What about the TGI [32] of the same molecule?
**A.** 290 µM and 1650 µM and 1880 µM

**Q.** What about the TGI [66] of the same molecule?
**A.** 327 µM and 1650 µM and 269 µM

**Q.** What about the TGI [33] of the same molecule?
**A.** 499 µM and > 1650 µM and 2170 µM

**Q.** And the TGI [34]?
**A.** 44.9 µM

**Q.** And the TGI [35]?
**A.** 455 µM and 1650 µM and 3170 µM

**Q.** What about the TGI [36] of the same molecule?
**A.** 468 µM and 1650 µM and > 4540 µM

**Q.** What about the TGI [37] of the same molecule?
**A.** 500 µM and 1650 µM and 2630 µM

**Q.** And the TGI [38]?
**A.** 305 µM and 1650 µM and 2090 µM

**Q.** And the TGI [39]?
**A.** 500 µM and 1650 µM and > 3510 µM

**Q.** And the TGI [40]?
**A.** > 4370 µM

**Q.** What about the GI50 [67] of the same molecule?
**A.** 20.1 µM and 4.86 µM

**Q.** And the TGI [67]?
**A.** 135 µM and 626 µM and 114 µM

**Q.** What about the TGI [42] of the same molecule?
**A.** 333 µM

**Q.** What about the TGI [44] of the same molecule?
**A.** 500 µM and 1650 µM and 4660 µM

**Q.** And the TGI [45]?
**A.** 2910 µM

**Q.** What about the TGI [48] of the same molecule?
**A.** 500 µM and > 1650 µM and 3460 µM

**Q.** What about the TGI [50] of the same molecule?
**A.** 207 µM and 1650 µM and 475 µM

**Q.** And the TGI [51]?
**A.** 500 µM and > 1650 µM and > 4130 µM

**Q.** And the TGI [54]?
**A.** 500 µM and 1650 µM and > 4780 µM

**Q.** What about the GI50 [68] of the same molecule?
**A.** 118 µM and 312 µM

**Q.** What about the TGI [68] of the same molecule?
**A.** 500 µM and 1650 µM and 2420 µM

**Q.** What about the TGI [69] of the same molecule?
**A.** 500 µM and 1650 µM and 3650 µM

**Q.** What about the TGI [55] of the same molecule?
**A.** 500 µM and 1650 µM and 1670 µM

**Q.** What about the GI50 [56] of the same molecule?
**A.** 143 µM

**Q.** And the TGI [56]?
**A.** 500 µM and > 4750 µM

**Q.** What about the TGI [57] of the same molecule?
**A.** 617 µM
